Each structure is given as a SMILES string.

The subject of test [1] is SARS-CoV-2. The note with it: incubation of SARS-CoV-2 with compound for 1 hr at 37° C., plaque assay.
The subject of test [2] is SARS-CoV-2. Kind of test: viral load reduction assay in Vero E6 cells (RT-qPCR of released genome copies). The format is cell-based.
Test [3] has as its system SARS-CoV-2. Nature of the test: viral load reduction assay in human lung epithelial (Calu) cells (RT-qPCR of released genome copies). The format is cell-based. The following applies: MOI 1, 150 uM, 16 h pi. A general note: Real-time PCR tracks product formation cycle by cycle.
Test [4] has as its system SARS-CoV-2. Kind of test: time of addition assay in Vero cells, plaque assay. The class given is cell-based. The note with it: infectious particles by plaque assay at 16 h pi.

Consider `CC(C)NC[C@@H](O)COc1cccc2ccccc12` [R-propranolol, (R)-(+)-1-(isopropylamino)-3-(naphthalen-1-yloxy)propan-2-ol], for which the “reduction of infectivity of virus particles (virucidal activity)” value in the test on SARS-CoV-2 [1] is on record as “does not reduce infectivity of virus particles”. The “efficacy in viral load reduction compared with remdesivir” value with SARS-CoV-2 [2] (25 uM) was “approximately the same efficacy as remdesivir”. For the same compound, the “reduction in extracellular SARS-CoV-2 genome copies” value with SARS-CoV-2 [2] (MOI 1, 50 uM, 16 h post-infection) is listed as approximately 2.5 log; in the test with SARS-CoV-2 [3] it was “about 1.5 log”. In addition, in the test with SARS-CoV-2 [4], the “reduction of viral load by time of addition” value is “highest reduction of viral load upon pre-treatment”.

Source of the values: patent US20240358659A1, “Uses of Propranolol for Managing Viral Infections” (Emory University, priority 2021, published 2024).
